Marks after values point to notes of the source that are not given here.
Assays:
Format in all cases: in vivo, Wistar rats
[1] = system: maltase; assay: Intestinal maltase activity in diabetic rats; conditions: diabetic rats fed 1% of diet, mean ± SEM
From the text: (§1) Experimental design for the animal studies: adult Wistar rats […] were divided into six groups (8 rats per group, average body weight 249.0±0.3 g) as follows: Group 1—healthy rats receiving normal diet (normal); Group 2—diabetic rats fed normal diet (diabetic); Group 3—diabetic rats fed sapogenin extract (as 1% of the diet); Group 4—diabetic rats fed diosgenin (as 1% of normal diet); Group 5—diabetic rats fed bitter yam (as 1% of diet); and Group 6 fed the bitter yam therapeutic product (BYTP—as 1% of the diet).
(§2) The rats except the control group were made diabetic using standard procedures involving streptozotocin (60 mg/kg body weight in 0.05 M citrate buffer, pH 4.5) injection intraperitonally. The control group rats were injected with an equivalent amount of buffer (0.05 M citrate buffer, pH 4.5). The normal rat diet (PMI Feeds Inc., Lab diet #5001) was a marketed laboratory rodent diet recommended for rats, mice and hamsters with the approximate chemical composition: protein 23%, fat 4.5%, fiber 6.0%, ash 8.0% and carbohydrate 58.5%. Rats were housed in stainless steel cages in a room kept on a 12-hour light-dark cycle, and were allowed to have access to their respective diets and water freely. The cages were cleaned daily. Body weight change, faecal output and total food intake were recorded weekly. The rats were fed on their respective diets for 4 weeks and sacrificed by decapitation after an overnight fast. Blood was collected in oxalate/fluoride vacutainers. The intestine, kidney, liver and spleen were excised, weighed and frozen in liquid nitrogen and stored at −20° C. until required for analysis. A section of the jejunum was cut and stored in 10% buffered formalin.

[2] = system: Na^+/K^+ ATPase; assay: Intestinal Na+/K+ ATPase activity in diabetic rats; conditions: diabetic rats fed 1% of diet, mean ± SEM
Description: (§3) Group 1—healthy rats receiving normal diet (normal); Group 2—diabetic rats fed normal diet (diabetic); […] Group 4—diabetic rats fed diosgenin (as 1% of normal diet); Group 5—diabetic rats fed bitter yam (as 1% of diet); and Group 6 fed the bitter yam therapeutic product (BYTP—as 1% of the diet). The rats except the control group were made diabetic using standard procedures involving streptozotocin (60 mg/kg body weight in 0.05 M citrate buffer, pH 4.5) injection intraperitonally. The control group rats were injected with an equivalent amount of buffer (0.05 M citrate buffer, pH 4.5). […] Rats were housed in stainless steel cages in a room kept on a 12-hour light-dark cycle, and were allowed to have access to their respective diets and water freely. The cages were cleaned daily. Body weight change, faecal output and total food intake were recorded weekly. The rats were fed on their respective diets for 4 weeks and sacrificed by decapitation after an overnight fast. Blood was collected in oxalate/fluoride vacutainers. The intestine, kidney, liver and spleen were excised, weighed and frozen in liquid nitrogen and stored at −20° C. until required for analysis. A section of the jejunum was cut and stored in 10% buffered formalin. Na^+/K^+ and Ca^+ ATPase activities were measured by the amount of inorganic phosphate released following incubation with disodium ATP and cations for the appropriate ATPase (see Bonting et al., Sodium-potassium activated adenosinetriphosphatase and cation transport, in Membranes and Ion Transport I, Bittar (Ed.). Wiley-Interscience, N.Y., pp. 257-363 (1970); and Bonting et al., Archives of Biochemistry and Biophysics 101: 47-55 (1963)). The inorganic phosphate was determined by the method of Fiske and Subarow, Journal of Biological Chemistry 66: 375-400 (1925).

[3] = system: Mg^2+ ATPase; assay: Intestinal Mg2+ ATPase activity in diabetic rats; conditions: diabetic rats fed 1% of diet, mean ± SEM
[4] = system: Ca^2+ ATPase; assay: Intestinal Ca2+ ATPase activity in diabetic rats; conditions: diabetic rats fed 1% of diet, mean ± SEM
Description: as §3

[5] = system: acid phosphatase; assay: Acid phosphatase activity of liver, kidney and spleen in diabetic rats; conditions: diabetic rats fed 1% of diet, 4 weeks, mean ± SEM
From the text: as §1, §2

[6] = system: aspartate transaminase; assay: Aspartate transaminase activity of liver, kidney and spleen in diabetic rats; conditions: diabetic rats fed 1% of diet, 4 weeks, mean ± SEM
From the text: as §1, §2

[7] = system: diabetic rats; assay: Lipid peroxidation (conjugated dienes, TBARS) in diabetic rats; conditions: diabetic rats fed 1% of diet, 4 weeks, mean ± SEM
From the text: as §1, §2
Lipid peroxidation assays were conducted using the procedure of Tappel and Zalkin, Arch Biochim Biophys, 80: 333-336 (1959). Concentration of conjugated dienes in the liver was determined using the method of Hu et al., J Nutr, 119: 1574-1582 (1989).

[8] = system: alanine transaminase; assay: Alanine transaminase activity of liver, kidney and spleen in diabetic rats; conditions: diabetic rats fed 1% of diet, 4 weeks, mean ± SEM
From the text: as §1, §2

[9] = system: glucose-6-phosphatase; assay: Glucose-6-phosphatase activity in liver and kidneys of diabetic rats; conditions: diabetic rats fed 1% of diet, mean ± SEM
From the text: as §1
as §2, with “The rats were fed on their respective diets for 4 weeks and sacrificed by decapitation after an overnight fast. Blood was collected in oxalate/fluoride vacutainers. The intestine, kidney, liver and spleen were excised, weighed and frozen in liquid nitrogen and stored at −20° C. until required for analysis. A section of the jejunum was cut and stored in 10% buffered formalin.” left out

C[C@@H]1CC[C@@]2(OC1)O[C@H]1C[C@H]3[C@@H]4CC=C5C[C@@H](O)CC[C@]5(C)[C@H]4CC[C@]3(C)[C@H]1[C@@H]2C [diosgenin]
Specific activity of maltase from different sections of the rat intestine ([1]; Distal): 14.0 ± 1.0.^A nmol maltase/min/mg protein
Specific activity of maltase from different sections of the rat intestine ([1]; Mid): 17.1 ± 0.9^a nmol maltase/min/mg protein
Specific activity of maltase from different sections of the rat intestine ([1]; Upper): 18.4 ± 1.2^a nmol maltase/min/mg protein
Specific activity of Na^+/K^+ ATPase from rat intestinal sections ([2]; Distal): 7.3 ± 0.1^c nmol Pi/min/mg protein
Specific activity of Na^+/K^+ ATPase from rat intestinal sections ([2]; Mid): 9.5 ± 0.1^c nmol Pi/min/mg protein
Specific activity of Na^+/K^+ ATPase from rat intestinal sections ([2]; Proximal): 12.8 ± 0.2^c nmol Pi/min/mg protein
Specific activity of Mg^2+ ATPase from rat intestinal sections ([3]; Distal): 16.4 ± 0.6^a nmol Pi/min/mg protein
Specific activity of Mg^2+ ATPase from rat intestinal sections ([3]; Mid): 22.1 ± 0.4^b nmol Pi/min/mg protein
Specific activity of Mg^2+ ATPase from rat intestinal sections ([3]; Proximal): 27.8 ± 0.5^a nmol Pi/min/mg protein
Specific activity of Ca^2+ ATPase from rat intestinal sections ([4]; Distal): 13.1 ± 0.3^b nmol Pi/min/mg protein
Specific activity of Ca^2+ ATPase from rat intestinal sections ([4]; Mid): 17.1 ± 0.4^c nmol Pi/min/mg protein
Specific activity of Ca^2+ ATPase from rat intestinal sections ([4]; Proximal): 34.9 ± 0.6^a nmol Pi/min/mg protein
Acid phosphatase ([5]; kidney): 27.3 ± 1.1^a mg PNP/min/mg protein × 10^−5
Acid phosphatase ([5]; liver): 17.3 ± 0.9^a mg PNP/min/mg protein × 10^−5
Acid phosphatase ([5]; spleen): 9.0 ± 0.8^b mg PNP/min/mg protein × 10^−5
Aspartate transaminase ([6]; kidney): 5.5 ± 0.6^bc mg pyr/min/mg protein × 10^−4
Aspartate transaminase ([6]; liver): 8.6 ± 0.7^ab mg pyr/min/mg protein × 10^−4
Aspartate transaminase ([6]; spleen): 7.1 ± 1.3^ab mg pyr/min/mg protein × 10^−4
Kidney TBARS [7]: 61.7 ± 6.6^a nmol/g kidney
Liver TBARS [7]: 18.1 ± 2.1^a nmol/g liver
Conjugated dienes ([7]; liver): 0.428 ± 0.082^a μmole/g liver
Alanine transaminase ([8]; kidney): 5.4 ± 0.5^a mg pyr/min/mg protein × 10^−4
Alanine transaminase ([8]; liver): 14.1 ± 2.80^a mg pyr/min/mg protein × 10^−4
Alanine transaminase ([8]; spleen): 10.7 ± 1.8^ab mg pyr/min/mg protein × 10^−4
glucose-6-phosphatase activity, Kidney ([9]; kidney): 11.0 ± 2.0^b μmole/min/mg protein × 10^−2
glucose-6-phosphatase activity, Liver ([9]; liver): 8.3 ± 1.0^a μmole/min/mg protein × 10^−2

Source: US10369183B2, “Therapeutic compositions from jamaican bitter yam and methods of making and using same” (University of The West Indies, priority 2008, dated 2019)
